Assay results from patent US20020026053A1, “Novel 3-(substituted) -2- indolinones compounds and use thereof as inhibitors of protein kinase activity” (priority 1997, published 2002).

Assays:
EGFR = target: T1, EGFR (Homo sapiens, UniProt P00533); test: Biochemical EGFR Assay; design: concentration or dose not given beside the values; conditions: protocol P.167
T1 construct: endogenous in cells; host or cells: A431 cells (lysate, captured with SUMO1 anti-EGFR antibody)
In short: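 Readout is ABTS absorbance at 410 nm after anti-phosphotyrosine and HRP-antibody detection of EGFR autophosphorylation. The kinase was immunocaptured from A431 lysate, exposed 30 min to test compound diluted 1:10 in TBS, then phosphorylated for 5 min with ATP/MnCl2 before an EDTA stop.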

PDGF-R = PDGF-R Assay (cellular ELISA, U1242 cells); assay type: cell-based; design: concentration or dose not given beside the values; conditions: protocol P.119
In short: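 Cellular ELISA for receptor autophosphorylation: after 2 hr test-compound treatment of serum-free U1242 cells at 37°C, ligand is added for 5–10 min, cells are lysed (HNTG) and receptor captured by specific antibody. Anti-phosphotyrosine plus secondary antibody with ABTS colour read at 410/630 nm, compared with compound-free control cells.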

T1 sequence (P00533 25-1210): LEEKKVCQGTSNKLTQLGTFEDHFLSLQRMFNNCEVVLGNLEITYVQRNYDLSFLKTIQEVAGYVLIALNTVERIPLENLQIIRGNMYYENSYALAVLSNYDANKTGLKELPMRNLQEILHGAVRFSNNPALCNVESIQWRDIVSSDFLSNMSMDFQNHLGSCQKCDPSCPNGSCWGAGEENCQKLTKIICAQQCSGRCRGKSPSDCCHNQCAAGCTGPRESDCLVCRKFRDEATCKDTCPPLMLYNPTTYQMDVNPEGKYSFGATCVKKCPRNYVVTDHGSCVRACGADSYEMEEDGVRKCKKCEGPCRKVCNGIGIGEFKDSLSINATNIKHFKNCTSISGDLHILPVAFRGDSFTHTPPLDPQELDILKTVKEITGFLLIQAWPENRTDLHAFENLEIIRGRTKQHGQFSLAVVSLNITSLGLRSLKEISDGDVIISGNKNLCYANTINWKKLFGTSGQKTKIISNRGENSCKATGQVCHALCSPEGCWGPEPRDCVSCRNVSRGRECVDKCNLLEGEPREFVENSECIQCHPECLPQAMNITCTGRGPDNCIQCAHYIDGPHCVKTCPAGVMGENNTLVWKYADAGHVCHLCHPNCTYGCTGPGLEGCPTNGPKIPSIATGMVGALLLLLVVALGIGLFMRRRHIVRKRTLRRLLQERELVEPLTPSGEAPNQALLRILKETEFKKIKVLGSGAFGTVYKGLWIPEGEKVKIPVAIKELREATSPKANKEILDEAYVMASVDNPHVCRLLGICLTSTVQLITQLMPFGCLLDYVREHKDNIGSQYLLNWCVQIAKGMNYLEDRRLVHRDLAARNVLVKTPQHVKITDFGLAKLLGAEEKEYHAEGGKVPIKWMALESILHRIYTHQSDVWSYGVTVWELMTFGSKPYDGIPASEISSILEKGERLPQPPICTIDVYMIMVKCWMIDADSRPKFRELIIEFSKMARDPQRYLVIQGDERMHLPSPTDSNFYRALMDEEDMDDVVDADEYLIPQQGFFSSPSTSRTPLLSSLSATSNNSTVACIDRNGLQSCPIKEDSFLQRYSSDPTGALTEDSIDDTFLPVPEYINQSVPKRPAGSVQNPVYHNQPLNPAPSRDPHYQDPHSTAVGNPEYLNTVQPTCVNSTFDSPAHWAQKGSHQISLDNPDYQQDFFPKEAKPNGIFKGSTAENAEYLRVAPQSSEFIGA

| Compound | Biochem EGFR % Inhibition (P.167) (EGFR) [%] | PDGF Kinase % Inhibition (P.119) (PDGF-R) [%] |
| --- | --- | --- |
| Cc1c(Br)cc(Br)c2c1C(=Cc1cc(O)cc(O)c1)C(=O)N2 [10738/H07] | −13.4 |  |
| Cc1c(Br)cc(Br)c2c1C(=Cc1ccc(Cl)c(Cl)c1)C(=O)N2 [10738/H08] | −12.1 |  |
| COc1ccccc1C=C1C(=O)Nc2c(Br)cc(Br)c(C)c21 [10738/H09] | 1.6 |  |
| Cc1c(Br)cc(Br)c2c1C(=Cc1ccc(C(C)C)cc1)C(=O)N2 [10738/H10] | 11.4 |  |
| CCCOc1ccc(C=C2C(=O)Nc3c(Br)cc(Br)c(C)c32)cc1 [10738/H11] | −13.4 |  |
| COc1ccc(C=C2C(=O)Nc3c(Br)cc(Br)cc32)cc1C [10739/A02] | 0.0 | 21.7 |
| O=C1Nc2c(Br)cc(Br)cc2C1=Cc1cccc(OCc2ccccc2)c1 [10739/A03] | 5.1 | 15.4 |
| O=C1Nc2c(Br)cc(Br)cc2C1=Cc1ccc(OCc2ccccc2)cc1 [10739/A04] | −6.3 | 23.2 |
| O=C1Nc2c(Br)cc(Br)cc2C1=CC1COc2ccccc2O1 (stereo not shown) [10739/A05] | 10.7 | 15.9 |
| O=C1Nc2c(Br)cc(Br)cc2C1=Cc1ccc(O)cc1Cl [10739/A06] | −5.5 | 17.8 |
| O=C1Nc2c(Br)cc(Br)cc2C1=Cc1cc(O)c(O)c(O)c1 [10739/A07] | 65.6 | 34.8 |
| COc1ccc(Oc2cccc(C=C3C(=O)Nc4c(Br)cc(Br)cc43)c2)cc1 [10739/A08] | 6.2 | 3.8 |
| CN(C)CCCOc1ccc(C=C2C(=O)Nc3c(Br)cc(Br)cc32)cc1 [10739/A09] | 26.9 | −0.6 |
| O=C1Nc2c(Br)cc(Br)cc2C1=Cc1ccoc1 [10739/A10] | 20.7 | −1.1 |
| O=C1Nc2c(Br)cc(Br)cc2C1=Cc1ccc(CO)o1 [10739/A11] | −8.7 | 1.8 |
| COc1ccc(C=C2C(=O)Nc3ccc(I)cc32)cc1C [10739/B02] | 18.1 | 5.2 |
| O=C1Nc2ccc(I)cc2C1=Cc1cccc(OCc2ccccc2)c1 [10739/B03] | 9.6 | 1.8 |
| O=C1Nc2ccc(I)cc2C1=Cc1ccc(OCc2ccccc2)cc1 [10739/B04] | 17.5 | 19.8 |
| O=C1Nc2ccc(I)cc2C1=CC1COc2ccccc2O1 (stereo not shown) [10739/B05] | 32.0 | 4.7 |
| O=C1Nc2ccc(I)cc2C1=Cc1ccc(O)cc1Cl [10739/B06] | 9.2 | 6.7 |
| O=C1Nc2ccc(I)cc2C1=Cc1cc(O)c(O)c(O)c1 [10739/B07] | 59.4 | 19.8 |
| COc1ccc(Oc2cccc(C=C3C(=O)Nc4ccc(I)cc43)c2)cc1 [10739/B08] | 19.8 | −0.1 |
| CN(C)CCCOc1ccc(C=C2C(=O)Nc3ccc(I)cc32)cc1 [10739/B09] | 11.9 | 74.1 |
| O=C1Nc2ccc(I)cc2C1=Cc1ccoc1 [10739/B10] | −2.1 | −16.1 |
| O=C1Nc2ccc(I)cc2C1=Cc1ccc(CO)o1 [10739/B11] | −4.2 | −9.8 |
| COc1ccc(C=C2C(=O)Nc3ccc(Br)c(C)c32)cc1C [10739/C02] | −1.7 | 10.6 |

| Compound | Biochem EGFR % Inhibition (P.167) (EGFR) [%] | PDGF Kinase % Inhibition (P.119) (PDGF-R) [%] |
| --- | --- | --- |
| Cc1c(Br)ccc2c1C(=Cc1cccc(OCc3ccccc3)c1)C(=O)N2 [10739/C03] | 18.3 | 10.1 |
| Cc1c(Br)ccc2c1C(=Cc1ccc(OCc3ccccc3)cc1)C(=O)N2 [10739/C04] | 1.5 | 19.3 |
| Cc1c(Br)ccc2c1C(=CC1COc3ccccc3O1)C(=O)N2 (stereo not shown) [10739/C05] | −1.7 | 31.4 |
| Cc1c(Br)ccc2c1C(=Cc1ccc(O)cc1Cl)C(=O)N2 [10739/C06] | −17.0 | 33.8 |
| Cc1c(Br)ccc2c1C(=Cc1cc(O)c(O)c(O)c1)C(=O)N2 [10739/C07] | 34.7 | 44.5 |
| COc1ccc(Oc2cccc(C=C3C(=O)Nc4ccc(Br)c(C)c43)c2)cc1 [10739/C08] | −1.7 | 11.0 |
| Cc1c(Br)ccc2c1C(=Cc1ccc(OCCCN(C)C)cc1)C(=O)N2 [10739/C09] | −2.7 | 105.6 |
| Cc1c(Br)ccc2c1C(=Cc1ccoc1)C(=O)N2 [10739/C10] | −7.0 | −18.6 |
| Cc1c(Br)ccc2c1C(=Cc1ccc(CO)o1)C(=O)N2 [10739/C11] | −17.0 | 9.1 |
| CNS(=O)(=O)c1ccc2c(c1)C(=Cc1ccc(OC)c(C)c1)C(=O)N2 [10739/D02] | 2.6 | 17.8 |
| CNS(=O)(=O)c1ccc2c(c1)C(=Cc1cccc(OCc3ccccc3)c1)C(=O)N2 [10739/D03] | 24.7 | 14.4 |
| CNS(=O)(=O)c1ccc2c(c1)C(=Cc1ccc(OCc3ccccc3)cc1)C(=O)N2 [10739/D04] | −6.4 | 7.2 |
| CNS(=O)(=O)c1ccc2c(c1)C(=CC1COc3ccccc3O1)C(=O)N2 (stereo not shown) [10739/D05] | −10.6 | −6.9 |
| CNS(=O)(=O)c1ccc2c(c1)C(=Cc1ccc(O)cc1Cl)C(=O)N2 [10739/D06] | −19.8 | −43.8 |
| CNS(=O)(=O)c1ccc2c(c1)C(=Cc1cc(O)c(O)c(O)c1)C(=O)N2 [10739/D07] | 21.1 | 18.8 |
| CNS(=O)(=O)c1ccc2c(c1)C(=Cc1cccc(Oc3ccc(OC)cc3)c1)C(=O)N2 [10739/D08] | −16.8 | 5.7 |
| CNS(=O)(=O)c1ccc2c(c1)C(=Cc1ccc(OCCCN(C)C)cc1)C(=O)N2 [10739/D09] | −15.1 | 4.7 |
| COc1ccc(C=C2C(=O)Nc3ccc(S(=O)(=O)Nc4ccc(C(F)(F)F)cc4)cc32)cc1C [10739/E02] | −8.3 | 18.3 |
| O=C1Nc2ccc(S(=O)(=O)Nc3ccc(C(F)(F)F)cc3)cc2C1=Cc1cccc(OCc2ccccc2)c1 [10739/E03] | 4.9 | 2.8 |
| O=C1Nc2ccc(S(=O)(=O)Nc3ccc(C(F)(F)F)cc3)cc2C1=Cc1ccc(OCc2ccccc2)cc1 [10739/E04] | −35.5 | 5.2 |
| O=C1Nc2ccc(S(=O)(=O)Nc3ccc(C(F)(F)F)cc3)cc2C1=CC1COc2ccccc2O1 (stereo not shown) [10739/E05] | −11.3 | 10.6 |
| O=C1Nc2ccc(S(=O)(=O)Nc3ccc(C(F)(F)F)cc3)cc2C1=Cc1ccc(O)cc1Cl [10739/E06] | 33.5 | 72.7 |
| O=C1Nc2ccc(S(=O)(=O)Nc3ccc(C(F)(F)F)cc3)cc2C1=Cc1cc(O)c(O)c(O)c1 [10739/E07] | 79.6 | 48.4 |
| COc1ccc(Oc2cccc(C=C3C(=O)Nc4ccc(S(=O)(=O)Nc5ccc(C(F)(F)F)cc5)cc43)c2)cc1 [10739/E08] | −17.4 | 21.7 |
| CN(C)CCCOc1ccc(C=C2C(=O)Nc3ccc(S(=O)(=O)Nc4ccc(C(F)(F)F)cc4)cc32)cc1 [10739/E09] | 15.2 | 18.3 |
